“And” between values parts separate entries of the source, which are not always exact repeats. Equal entries are not always repeated.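 Growth conditions: 96-well plates. Treatment: test compound, 48 hours, 5 concentrations. Analysis: linear interpolation between bracketing concentrations; unreached endpoints set to highest concentration. GI50 = concentration required for 50% inhibition of growth. TGI is the concentration that stops growth completely.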

Test in all cases: DTP human tumour cell line panel, 48 h
Experiment [1] relates to OVCAR-5 ovarian.
Experiment [2] has as its system MDA-MB-435.
Experiment [3] concerns SF-295 CNS.
Experiment [4] concerns LOX IMVI melanoma.
Experiment [5] deals with CAKI-1 renal.
For experiment [6], the system named is MOLT-4 leukemia.
Experiment [7] concerns SK-OV-3 ovarian.
Experiment [8] concerns HL-60(TB) leukemia.
The subject of experiment [9] is HS 578T breast.
Experiment [10] deals with MDA-MB-231 breast.

The GI50 is the concentration that inhibits growth by half. For orientation: TGI means the concentration giving total growth inhibition. Low readings indicate greater sensitivity of the cells, high ones lower sensitivity of the cells. Turning to `CC(C)(F)C[C@H](N[C@@H](c1ccc(-c2ccc(S(C)(=O)=O)cc2)cc1)C(F)(F)F)C(=O)NC1(C#N)CC1`, the GI50 in experiment [1] is over 100 µM; in experiment [2], over 100 µM; in experiment [3] it was 18.8 µM and 17.9 µM; in experiment [4] it was over 100 µM; in experiment [5] it was 18.7 µM and 27.4 µM; in experiment [6], over 100 µM. Also, the GI50 in experiment [7] is 23 µM and 27.5 µM; in experiment [8], over 100 µM; in [9], 13.6 µM and 21.1 µM; in experiment [10], 18.6 µM and 34.4 µM. The TGI in [1] is over 100 µM; in experiment [2] it was over 100 µM; in experiment [3] it was 55 µM and 50.9 µM; in [4], over 100 µM; in experiment [5] it was 55 µM and > 100 µM; in experiment [6], over 100 µM. Moreover, the total growth inhibition concentration (TGI) in [7] was 55 µM and 70.7 µM; in experiment [8], over 100 µM; in experiment [9], 55 µM and 63.9 µM; in [10] it was 55 µM and > 100 µM.
Consider `O=C(Nc1cccc([N+](=O)[O-])c1)c1cc2ccccc2cc1O`, for which the GI50 in experiment [1] is 2.55 µM; in [2], 1.5 µM; in experiment [3], 1.96 µM; in [4], 1.87 µM; in experiment [5], 1.16 µM; in experiment [6], 2.08 µM. Also, the GI50 in experiment [7] was 1.84 µM; in [8], 0.59 µM; in experiment [9], 1.24 µM; in experiment [10] it was 1.47 µM. In addition, the TGI turned out to be 10.3 µM in experiment [1]; 5.41 µM in experiment [2]; 5.33 µM in experiment [3]; 7.69 µM in experiment [4]; 4.88 µM in experiment [5]; 6.24 µM in [6]. The TGI was 6.07 µM in experiment [7], 3.03 µM in experiment [8], 10.4 µM in experiment [9] and 3.64 µM in [10].
Regarding `CC(C)(O)CCC(O)C(C)(O)C1CCC2(O)C3=CC(=O)C4(O)CC(O)C(O)CC4(C)C3CCC12C` (stereo not given) (tested in a mixture with another compound), the concentration for total growth inhibition (TGI) in experiment [1], in experiment [2], in experiment [3], in experiment [4], in [5] and in experiment [6] was over 100 µM throughout. Also, the total growth inhibition concentration (TGI) in experiment [7], in experiment [8], in experiment [9] and in experiment [10] was over 100 µM throughout.
Take `C#CCOc1cccc(Nc2ncc3ncn(C4CCN(C(=O)CCl)C4)c3n2)c1` (stereo not given): the GI50 was over 62.5 µM in experiment [1]; over 62.5 µM in experiment [2]; over 62.5 µM in experiment [3]; 13.2 µM in [4]; over 62.5 µM in experiment [5]; 11.3 µM in experiment [6]. Further, the GI50 in experiment [7] is over 62.5 µM; in [8], 22.7 µM; in experiment [9] it was over 62.5 µM; in [10], over 62.5 µM. Further, the TGI in experiment [1], in [2], in experiment [3], in experiment [4], in experiment [5] and in experiment [6] was over 62.5 µM each time. Moreover, the TGI in experiment [7], in experiment [8], in experiment [9] and in experiment [10] was over 62.5 µM throughout.
With `N#Cc1ncc(N2C(=O)C3(CCC3)N(c3ccc(OC4CCNCC4)nc3)C2=S)cc1C(F)(F)F`, the GI50 in experiment [1] was 17.3 µM; in experiment [2], 15.8 µM; in experiment [3] it was 16.1 µM; in [4] it was 11.2 µM; in experiment [5] it was 14 µM; in experiment [6], 13.1 µM. Further, the GI50 was 60.5 µM in experiment [7], 12.1 µM in experiment [8], 15.9 µM in experiment [9] and 16.4 µM in experiment [10]. Further, the TGI is 46.8 µM in experiment [1]; 31.3 µM in experiment [2]; 31.5 µM in experiment [3]; 24 µM in experiment [4]; 28.9 µM in experiment [5]; 42 µM in experiment [6]. Also, the TGI in [7] is over 100 µM; in [8], 33.9 µM; in experiment [9] it was 41.5 µM; in [10] it was 33.6 µM.
For `CS(=O)(=O)Nc1cc(-c2ccc3ncnc(Nc4cccc(Cl)c4F)c3c2)cnc1Cl`, the GI50 is 2.17 µM in experiment [1]; 4.73 µM in experiment [2]; 2.47 µM in [3]; 1.58 µM in experiment [4]; 1.82 µM in experiment [5]; 2.31 µM in experiment [6]. The GI50 in experiment [7] is 1.99 µM; in experiment [8] it was 3.19 µM; in [9], 0.274 µM; in experiment [10] it was 2.1 µM. Besides, the TGI in [1] came to 19.1 µM; in [2] it was 21.9 µM; in [3], 12.5 µM; in experiment [4], 5.45 µM; in experiment [5], 12.6 µM; in [6] it was 8.46 µM. Further, the TGI in experiment [7] was determined as 8.81 µM; in [8], 40.2 µM; in [9], 2.77 µM; in [10], 8.06 µM.
For the compound `FC(F)(F)c1cc(NC2=NCCN=C(Nc3cc(C(F)(F)F)cc(C(F)(F)F)c3)SS2)cc(C(F)(F)F)c1`, the GI50 is 5.94 µM in experiment [1]; 3.83 µM in experiment [2]; 3.08 µM in experiment [3]; 4.59 µM in experiment [4]; 3.12 µM in [5]; 4.71 µM in experiment [6]. Besides, the GI50 is 8.63 µM in [7], 3.27 µM in experiment [8], 5.08 µM in [9] and 3.59 µM in [10]. The concentration for total growth inhibition (TGI) in [1] turned out to be 19.7 µM; in experiment [2], 14.1 µM; in [3] it was 12.2 µM; in [4] it was 16.9 µM; in experiment [5] it was 13.1 µM; in experiment [6] it was 28 µM. Also, the TGI in experiment [7] is 54.3 µM; in experiment [8], 15.8 µM; in [9], 27.6 µM; in experiment [10], 15 µM.

The values above are taken from PubChem BioAssay (NCI).
